Here are results for one compound from patent US10047041B2, “Amino-phenyl-sulfonyl-acetate derivatives and use thereof” (CJ Healthcare Corporation, priority 2014, dated 2018).

Each structure is given as a SMILES string.

The test system of the test is ICR mice. The test is described as follows: Oral glucose tolerance test (OGTT) in ICR mice. Format: in vivo. The settings on record: normal fasted ICR mice; oral 50, 20, 5 and 1 mg/kg in 0.5% methylcellulose; glucose 2 g/kg; student's t-test p<0.05. On the procedure: In order to evaluate the ability to control blood glucose in the body for the compound according to the present invention, an oral glucose tolerance test was conducted using ICR mice. The day before the test, normal ICR mice were separated into four per group, and were fasted for at least 16 hours. The body weight of each mouse was measured and recorded in the morning on the day of the test; The compound was prepared in a concentration of 5 mg/mL in 0.5% methylcellulose such that it could be administered at a dose of 50 mg/kg, and was then further diluted to be in concentrations of […] and administered at the same volume such that it can be administered at doses of 20 mg/kg, 5 mg/kg, and 1 mg/kg. Glucose was dissolved in drinking water and prepared in a concentration of 200 mg/mL such that it could be administered at a dose of 2 g/kg. Before administering the compounds, a small amount of blood of the mice was drawn from the caudal vein, and blood glucose was measured using ACCU-CHEK Active (Art. No. 2248891001), a blood glucose meter, and recorded. A solvent (0.5% MC) as a vehicle and the compounds prepared above were administered to all mice at a dose of 10 mL per 1 kg of body weight using a sonde. Glucose was further administered, and the blood glucose was measured in each mouse after 0.5 hours, 1 hour, and 2 hours. […]

On to `Cc1ccccc1-c1cccc(CNc2ccc(S(=O)(=O)CC(=O)O)cc2)c1` [Example 1, 2-(4-((2′-methyl-biphenyl-3-yl)methylamino)phenylsulfonyl)acetic acid], for which the “effect of lowering blood glucose (glucose AUC0-2 hr after glucose administration)” value is given as “significant effect of lowering blood glucose”.
